The assay has as its target Urease (Canavalia ensiformis, UniProt P07374). Nature of the assay: Inhibition of jack bean urease.

Sequence of Urease (P07374 whole entry): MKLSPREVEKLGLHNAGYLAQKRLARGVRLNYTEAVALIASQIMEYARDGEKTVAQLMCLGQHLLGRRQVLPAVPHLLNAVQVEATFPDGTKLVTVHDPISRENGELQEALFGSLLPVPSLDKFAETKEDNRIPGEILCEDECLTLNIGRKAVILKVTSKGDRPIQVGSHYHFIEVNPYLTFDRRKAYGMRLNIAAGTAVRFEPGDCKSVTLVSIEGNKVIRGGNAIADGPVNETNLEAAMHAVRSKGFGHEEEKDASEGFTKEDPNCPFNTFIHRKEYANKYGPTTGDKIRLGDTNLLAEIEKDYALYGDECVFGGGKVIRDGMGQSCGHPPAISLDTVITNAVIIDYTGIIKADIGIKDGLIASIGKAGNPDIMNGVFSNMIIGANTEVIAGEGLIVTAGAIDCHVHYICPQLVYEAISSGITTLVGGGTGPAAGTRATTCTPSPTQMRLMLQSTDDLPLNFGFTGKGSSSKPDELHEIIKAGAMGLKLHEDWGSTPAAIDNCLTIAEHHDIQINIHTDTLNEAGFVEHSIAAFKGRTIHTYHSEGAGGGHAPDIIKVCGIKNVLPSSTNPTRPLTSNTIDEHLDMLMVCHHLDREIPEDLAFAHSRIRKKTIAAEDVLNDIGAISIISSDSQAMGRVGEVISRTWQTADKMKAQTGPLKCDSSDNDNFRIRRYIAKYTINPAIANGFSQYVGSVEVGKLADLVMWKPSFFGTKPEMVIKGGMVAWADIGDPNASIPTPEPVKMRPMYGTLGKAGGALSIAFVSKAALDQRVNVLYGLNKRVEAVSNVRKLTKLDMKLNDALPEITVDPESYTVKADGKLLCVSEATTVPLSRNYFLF

In turn, `COc1cc(C(c2c(O)oc3ccccc3c2=O)c2c(O)oc3ccccc3c2=O)cc(OC)c1OC` showed an IC50 of 83.2 µM. The result for `CC(C)c1ccc(C(c2c(O)oc3ccccc3c2=O)c2c(O)oc3ccccc3c2=O)cc1` reads 83.2 µM; that for `COc1ccc(C(c2c(O)c3ccccc3oc2=O)c2c(O)c3ccccc3oc2=O)cc1`, 60.3 µM; that for `O=c1oc2ccccc2c(O)c1C(c1c(O)c2ccccc2oc1=O)c1c[nH]c2ccccc12`, 61.7 µM. The result for `CCCCCC(c1c(O)c2ccccc2oc1=O)c1c(O)c2ccccc2oc1=O` reads 87.1 µM. To `O=c1oc2ccccc2c(O)c1C(c1ccncc1)c1c(O)c2ccccc2oc1=O` belongs 58.9 µM; to `O=c1oc2ccccc2c(O)c1C(/C=C/c1ccccc1)c1c(O)c2ccccc2oc1=O`, 60.3 µM; to `O=c1oc2ccccc2c(O)c1C(c1cccnc1)c1c(O)c2ccccc2oc1=O`, 35.5 µM. With `O=c1oc2ccccc2c(O)c1C(c1ccccc1Cl)c1c(O)c2ccccc2oc1=O`, the half-maximal inhibitory concentration (IC50) was 85.1 µM. The result for `CC(c1ccccc1)C(c1c(O)c2ccccc2oc1=O)c1c(O)c2ccccc2oc1=O` (stereo not drawn) reads 52.5 µM; that for `CCOc1cc(C(c2c(O)c3ccccc3oc2=O)c2c(O)c3ccccc3oc2=O)ccc1O`, 91.2 µM; that for `O=c1oc2ccccc2c(O)c1C(c1ccc[nH]1)c1c(O)c2ccccc2oc1=O`, 46.8 µM. With `CCCCC(c1c(O)c2ccccc2oc1=O)c1c(O)c2ccccc2oc1=O`, the IC50 is 64.6 µM. The result for `O=c1oc2ccccc2c(O)c1C(CCc1ccccc1)c1c(O)c2ccccc2oc1=O` reads 67.6 µM; that for `O=c1c(C(c2ccc(O)cc2)c2c(O)oc3ccccc3c2=O)c(O)oc2ccccc12`, 74.1 µM.

Consider `COc1cccc(C(c2c(O)c3ccccc3oc2=O)c2c(O)c3ccccc3oc2=O)c1`, for which the half-maximal inhibitory concentration (IC50) is 56.2 µM. `COc1ccccc1C(c1c(O)c2ccccc2oc1=O)c1c(O)c2ccccc2oc1=O` showed a concentration for half-maximal inhibition (IC50) of 83.2 µM. To `CC(c1c(O)c2ccccc2oc1=O)c1c(O)c2ccccc2oc1=O` belongs 63.1 µM; to `CCCC(c1c(O)c2ccccc2oc1=O)c1c(O)c2ccccc2oc1=O`, 67.6 µM. To `O=c1oc2ccccc2c(O)c1C(c1cccc(O)c1)c1c(O)c2ccccc2oc1=O` belongs 72.4 µM; to `O=c1oc2ccccc2c(O)c1C(c1cccc([N+](=O)[O-])c1)c1c(O)c2ccccc2oc1=O`, 81.3 µM; to `C/C=C/C(c1c(O)c2ccccc2oc1=O)c1c(O)c2ccccc2oc1=O`, 43.7 µM. As for `O=c1oc2ccccc2c(O)c1C(c1ccccc1Br)c1c(O)c2ccccc2oc1=O`, the midpoint of inhibition, the IC50, lay at 74.1 µM. To `COc1ccc(C(c2c(O)c3ccccc3oc2=O)c2c(O)c3ccccc3oc2=O)cc1OC` belongs 79.4 µM. The result for `O=c1oc2ccccc2c(O)c1C(c1cccc(Cl)c1)c1c(O)c2ccccc2oc1=O` reads 74.1 µM; that for `Nc1cccc(C(c2c(O)c3ccccc3oc2=O)c2c(O)c3ccccc3oc2=O)c1`, 75.9 µM. The result for `O=c1c(C(c2ccc([N+](=O)[O-])cc2)c2c(O)oc3ccccc3c2=O)c(O)oc2ccccc12` reads 70.8 µM; that for `O=c1oc2ccccc2c(O)c1Cc1c(O)c2ccccc2oc1=O` [DICUMAROL], 15.1 µM.

As usually defined, the IC50 is the concentration needed to halve the response being measured. Lower therefore signals inhibition by little substance.

The values above are taken from ChEMBL document CHEMBL1144858, “3D-QSAR CoMFA studies on bis-coumarine analogues as urease inhibitors: a strategic design in anti-urease agents” (Bioorg Med Chem, 2008).
